The record followed here is ChEMBL document CHEMBL1127704 (J Med Chem, 1994).

Experiment [1] addresses T1, Dihydrofolate reductase (Rattus norvegicus, UniProt Q920D2).
T1 sequence (Q920D2 whole entry): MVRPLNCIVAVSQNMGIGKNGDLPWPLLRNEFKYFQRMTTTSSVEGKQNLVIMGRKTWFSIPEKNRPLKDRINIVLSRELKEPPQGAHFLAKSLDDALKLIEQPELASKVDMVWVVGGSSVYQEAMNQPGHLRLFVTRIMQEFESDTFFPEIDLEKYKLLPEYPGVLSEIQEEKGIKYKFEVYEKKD
Description: Inhibition of Dihydrofolate reductase (DHFR) of in rat liver

The target of experiment [2] is T2, Dihydrofolate reductase (Pneumocystis carinii, UniProt P16184).
T2 sequence (P16184 whole entry): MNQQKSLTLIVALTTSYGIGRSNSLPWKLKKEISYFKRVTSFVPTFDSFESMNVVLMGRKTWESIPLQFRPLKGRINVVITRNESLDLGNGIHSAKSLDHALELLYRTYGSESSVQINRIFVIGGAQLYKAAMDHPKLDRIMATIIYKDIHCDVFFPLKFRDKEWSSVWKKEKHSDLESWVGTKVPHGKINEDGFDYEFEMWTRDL
Description: Inhibition of Dihydrofolate reductase of Pneumocystis carinii

Experiment [3] deals with T3, Bifunctional dihydrofolate reductase-thymidylate synthase (Toxoplasma gondii, UniProt Q07422).
T3 sequence (Q07422 whole entry): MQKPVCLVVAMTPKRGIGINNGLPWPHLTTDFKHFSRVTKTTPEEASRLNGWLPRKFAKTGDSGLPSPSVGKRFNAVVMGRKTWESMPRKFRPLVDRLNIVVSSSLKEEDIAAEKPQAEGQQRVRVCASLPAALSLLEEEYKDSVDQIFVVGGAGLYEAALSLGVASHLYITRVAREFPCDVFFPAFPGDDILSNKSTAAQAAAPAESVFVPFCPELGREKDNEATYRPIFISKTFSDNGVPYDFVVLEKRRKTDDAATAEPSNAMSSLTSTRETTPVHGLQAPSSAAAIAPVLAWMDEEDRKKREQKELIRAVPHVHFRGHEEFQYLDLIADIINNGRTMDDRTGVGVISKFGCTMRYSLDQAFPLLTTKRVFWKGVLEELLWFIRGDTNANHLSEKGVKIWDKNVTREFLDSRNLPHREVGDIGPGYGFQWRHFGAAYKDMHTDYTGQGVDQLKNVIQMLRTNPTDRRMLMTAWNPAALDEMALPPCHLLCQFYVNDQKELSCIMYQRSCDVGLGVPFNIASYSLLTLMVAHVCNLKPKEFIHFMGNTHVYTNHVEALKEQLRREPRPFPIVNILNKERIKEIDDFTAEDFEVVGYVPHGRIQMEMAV
Description: Inhibition of Dihydrofolate reductase of Toxoplasma gondii

Usually IC50 stands for the concentration at which inhibition is half-maximal.

As to `COc1cc(CCNc2ccc3nc(N)nc(N)c3c2Cl)cc(OC)c1OC`, the figures for the IC50 (against Dihydrofolate reductase [1]; against Dihydrofolate reductase [2]; in experiment [3]) were 5400 nM, 43000 nM and 2600 nM, respectively.
`COc1cc(N(C)Cc2ccc3nc(N)nc(N)c3c2Cl)cc(OC)c1OC`: the half-inhibitory concentration (IC50) in experiment [3] amounted to 6.4 nM.
Consider `COc1cc(NCc2ccc3nc(N)nc(N)c3c2Cl)cc(OC)c1OC`, for which the values for the IC50 (at Dihydrofolate reductase [1]; on Dihydrofolate reductase [2]; in experiment [3]) were 5.9 nM, 33 nM and 5.2 nM, respectively.
Consider `COc1cc(CCCNc2ccc3nc(N)nc(N)c3c2Cl)cc(OC)c1OC`, for which the values for the IC50 (at Dihydrofolate reductase [2]; in experiment [3]) were 95000 nM and 14000 nM, respectively.
On to `COc1ccc(OC)c(CNc2ccc3nc(N)nc(N)c3c2Cl)c1`, for which the results for the IC50 (against Dihydrofolate reductase [1]; at Dihydrofolate reductase [2]; in experiment [3]) were 28 nM, 53 nM and 17 nM, respectively.
In the same order, the values of `COc1cc(CN(C)c2ccc3nc(N)nc(N)c3c2Cl)cc(OC)c1OC` are 38 nM, 170 nM and 16 nM.
Take `COc1cc(CNc2ccc3nc(N)nc(N)c3c2Cl)cc(OC)c1OC`: the figures for the IC50 (against Dihydrofolate reductase [1]; at Dihydrofolate reductase [2]; in experiment [3]) were 6 nM, 33 nM and 7 nM, respectively.
In the case of `COc1ccc(OC)c(NCc2ccc3nc(N)nc(N)c3c2Cl)c1`, the IC50 at Dihydrofolate reductase [1] is 44 nM; at Dihydrofolate reductase [2] it was 51 nM; in experiment [3] it was 30 nM.
Consider `COc1ccc(OC)c(CCNc2ccc3nc(N)nc(N)c3c2Cl)c1`, for which the IC50 turned out to be 12000 nM at Dihydrofolate reductase [2] and 990 nM in experiment [3].
Consider `COc1ccc(OC)c(CCCNc2ccc3nc(N)nc(N)c3c2Cl)c1`, for which the IC50 against Dihydrofolate reductase [1] was 1900 nM; on Dihydrofolate reductase [2], 26000 nM; in experiment [3], 1000 nM.
